Square brackets hold non-standard residues; d marks the D form. Side chains are listed from the residue outwards. Peptide text beside a SMILES is read from it. * marks the point of attachment. Phe(3,4-F2) = N[C@@H](Cc1ccc(F)c(F)c1)C(=O)O; Phe(4-F) = N[C@@H](Cc1ccc(F)cc1)C(=O)O; 2Nal = N[C@@H](Cc1ccc2ccccc2c1)C(=O)O; d2Nal = N[C@H](Cc1ccc2ccccc2c1)C(=O)O; Tle = CC(C)(C)[C@H](N)C(=O)O; X5 = O=C(c1cc(F)cc(Br)c1)*; dNle = CCCC[C@@H](N)C(=O)O; Dap = NC[C@H](N)C(=O)O
Molecular target: T1, K-Ras / Raf RBD interaction (Homo sapiens, UniProt P01116, G12V)
T1 construct: The G12V mutant K-Ras (amino acids 1-185) was recombinantly fused; GST (N, cleaved yes); made in house; host or cells: Escherichia coli BL21
Experiment: HTRF assay, inhibition of Ras-Raf RBD interaction;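 note: HTRF signal read after overnight incubation of the assay plate at 4 °C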
Assay type: binding
Conditions: not given

`CCCC[C@H]1NC(=O)[C@H](CNC(=O)c2cc(F)cc(Br)c2)NC(=O)[C@H](CCCNC(=N)N)NC(=O)[C@@H](Cc2ccc3ccccc3c2)NC(=O)[C@H](CCCNC(=N)N)NC(=O)[C@H](CCCNC(=N)N)NC(=O)[C@H](CCCNC(=N)N)NC(=O)[C@@H](C)NC(=O)[C@H]([C@@H](C)O)NC(=O)[C@H](Cc2c[nH]c3ccccc23)NC(=O)[C@H](CCC(N)=O)NC1=O` [Cyclorasin 9A44a, (Trp-Thr-ala-Arg-Arg-Arg-nal-Arg-Dap(3-bromo-5-fluorobenzoyl)-nle-Gln)] (cyclo(WT[dA]RRR[d2Nal]R[Dap](X5)[dNle]Q)) and `CCCC[C@H]1NC(=O)[C@H](Cc2ccc(F)c(F)c2)NC(=O)[C@H](CCCNC(=N)N)NC(=O)[C@@H](Cc2ccc3ccccc3c2)NC(=O)[C@H](CCCNC(=N)N)NC(=O)[C@H](CCCNC(=N)N)NC(=O)[C@H](CCCNC(=N)N)NC(=O)[C@@H](C)NC(=O)[C@H]([C@@H](C)O)NC(=O)[C@H](Cc2c[nH]c3ccccc23)NC(=O)[C@H](CCC(N)=O)NC1=O` [Cyclorasin 9A43, (Trp-Thr-ala-Arg-Arg-Arg-nal-Arg-Phe(3,4-difluoro)-nle-Gln)] (cyclo(WT[dA]RRR[d2Nal]R[Phe(3,4-F2)][dNle]Q)) are within 1.5-fold of each other in IC50: 83 ± 8 nM for the first, 64 nM for the second.

`CCCC[C@H]1NC(=O)[C@H](Cc2ccc(F)cc2)NC(=O)[C@H](CCCNC(=N)N)NC(=O)[C@@H](Cc2ccc3ccccc3c2)NC(=O)[C@H](CCCNC(=N)N)NC(=O)[C@H](CCCNC(=N)N)NC(=O)[C@H](CCCNC(=N)N)NC(=O)[C@@H](C)NC(=O)[C@H](C(C)(C)C)NC(=O)[C@H](Cc2c[nH]c3ccccc23)NC(=O)[C@H](CCC(N)=O)NC1=O` [Cyclorasin 9A46, (Trp-Tle-ala-Arg-Arg-Arg-nal-Arg-Fpa-nle-Gln)] (cyclo(W[Tle][dA]RRR[d2Nal]R[Phe(4-F)][dNle]Q)) and `CCCC[C@H]1NC(=O)[C@H](Cc2ccc(F)cc2)NC(=O)[C@H](CCCNC(=N)N)NC(=O)[C@@H](Cc2ccc3ccccc3c2)NC(=O)[C@H](CCCNC(=N)N)NC(=O)[C@H](CCCNC(=N)N)NC(=O)[C@@H](CCCNC(=N)N)NC(=O)[C@@H](C)NC(=O)[C@H](C(C)(C)C)NC(=O)[C@H](Cc2c[nH]c3ccccc23)NC(=O)[C@H](CCC(N)=O)NC1=O` [Cyclorasin 9A16, (Trp-Tle-ala-arg-Arg-Arg-nal-Arg-Fpa-nle-Gln)] (cyclo(W[Tle][dA][dR]RR[d2Nal]R[Phe(4-F)][dNle]Q)) are within error of each other in IC50: 130 ± 20 nM for the first, 110 ± 10 nM for the second.

Going from `CCCC[C@H]1NC(=O)[C@H](Cc2ccc(F)cc2)NC(=O)[C@H](CCCNC(=N)N)NC(=O)[C@@H](Cc2ccc3ccccc3c2)NC(=O)[C@H](CCCNC(=N)N)NC(=O)[C@H](CCCNC(=N)N)NC(=O)[C@@H](CCCNC(=N)N)NC(=O)[C@@H](CC(C)C)NC(=O)[C@H]([C@@H](C)O)NC(=O)[C@H](Cc2c[nH]c3ccccc23)NC(=O)[C@H](CCC(N)=O)NC1=O` [Cyclorasin 9A15, (Trp-Thr-leu-arg-Arg-Arg-nal-Arg-Fpa-nle-Gln)] (cyclo(WT[dL][dR]RR[d2Nal]R[Phe(4-F)][dNle]Q)) to `CCCC[C@H]1NC(=O)[C@H](Cc2ccc(F)cc2)NC(=O)[C@H](CCCNC(=N)N)NC(=O)[C@@H](Cc2ccc3ccccc3c2)NC(=O)[C@H](CCCNC(=N)N)NC(=O)[C@H](CCCNC(=N)N)NC(=O)[C@H](CCCNC(=N)N)NC(=O)[C@@H](CC(C)C)NC(=O)[C@H](C(C)(C)C)NC(=O)[C@H](Cc2c[nH]c3ccccc23)NC(=O)[C@H](CCC(N)=O)NC1=O` [Cyclorasin 9A41, (Trp-Tle-leu-Arg-Arg-Arg-nal-Arg-Fpa-nle-Gln)] (cyclo(W[Tle][dL]RRR[d2Nal]R[Phe(4-F)][dNle]Q)), the IC50 rises from 110 ± 40 nM to 2000 ± 900 nM (18-fold).

`CCCC[C@H]1NC(=O)[C@H](Cc2ccc(F)cc2)NC(=O)[C@H](CCCNC(=N)N)NC(=O)[C@@H](Cc2ccc3ccccc3c2)NC(=O)[C@H](CCCNC(=N)N)NC(=O)[C@H](CCCNC(=N)N)NC(=O)[C@H](CCC(=O)N[C@@H](CCCCN)C(N)=O)NC(=O)[C@@H](C)NC(=O)[C@H]([C@@H](C)O)NC(=O)[C@H](Cc2c[nH]c3ccccc23)NC(=O)[C@@H](C)NC1=O` [Cyclorasin 9A(ser7dA), (Arg-Arg-nal-Arg-Fpa-nle-ala-Trp-Thr-ala-Gln)-Lys] (cyclo(RR[d2Nal]R[Phe(4-F)][dNle][dA]WT[dA]E([Lys-NH2]))) and `CCCC[C@H]1NC(=O)[C@H](Cc2ccc(F)cc2)NC(=O)[C@H](CCCNC(=N)N)NC(=O)[C@@H](Cc2ccc3ccccc3c2)NC(=O)[C@H](CCCNC(=N)N)NC(=O)[C@H](C)NC(=O)[C@H](CCC(=O)N[C@@H](CCCCN)C(N)=O)NC(=O)[C@@H](C)NC(=O)[C@H]([C@@H](C)O)NC(=O)[C@H](Cc2c[nH]c3ccccc23)NC(=O)[C@@H](CO)NC1=O` [Cyclorasin 9A(Arg1A), (Ala-Arg-nal-Arg-Fpa-nle-ser-Trp-Thr-ala-Gln)-Lys] (cyclo(AR[d2Nal]R[Phe(4-F)][dNle][dS]WT[dA]E([Lys-NH2]))) are within error of each other in IC50: 770 ± 490 nM for the first, 1300 ± 200 nM for the second.

First: CCCC[C@H]1NC(=O)[C@H](Cc2ccc(F)cc2)NC(=O)[C@H](CCCNC(=N)N)NC(=O)[C@@H](Cc2ccc3ccccc3c2)NC(=O)[C@H](CCCNC(=N)N)NC(=O)[C@H](CCCNC(=N)N)NC(=O)[C@H](CCCNC(=N)N)NC(=O)[C@@H](C)NC(=O)[C@H]([C@@H](C)O)NC(=O)[C@H](Cc2ccc3ccccc3c2)NC(=O)[C@H](CCC(N)=O)NC1=O [Cyclorasin 9A49, (Nal-Thr-ala-Arg-Arg-Arg-nal-Arg-Fpa-nle-Gln)] (cyclo([2Nal]T[dA]RRR[d2Nal]R[Phe(4-F)][dNle]Q))
Second: CCCC[C@H]1NC(=O)[C@H](Cc2ccc(F)cc2)NC(=O)[C@H](CCCNC(=N)N)NC(=O)[C@@H](Cc2ccc3ccccc3c2)NC(=O)[C@H](CCCNC(=N)N)NC(=O)[C@H](CCCNC(=N)N)NC(=O)[C@@H](CCCNC(=N)N)NC(=O)[C@@H](C(C)C)NC(=O)[C@H](C(C)(C)C)NC(=O)[C@H](Cc2c[nH]c3ccccc23)NC(=O)[C@H](CCC(N)=O)NC1=O [Cyclorasin 9A53, (Trp-Tle-val-arg-Arg-Arg-nal-Arg-Fpa-nle-Gln)] (cyclo(W[Tle][dV][dR]RR[d2Nal]R[Phe(4-F)][dNle]Q))
The IC50 of the first is 3.7-fold higher: 100 ± 10 nM for the first, 27 ± 11 nM for the second. The second is the more potent here.

First: CCCC[C@H]1NC(=O)[C@H](Cc2ccc(F)c(F)c2)NC(=O)[C@H](CCCNC(=N)N)NC(=O)[C@@H](Cc2ccc3ccccc3c2)NC(=O)[C@H](CCCNC(=N)N)NC(=O)[C@H](CCCNC(=N)N)NC(=O)[C@@H](CCCNC(=N)N)NC(=O)[C@@H](C(C)C)NC(=O)[C@H](C(C)(C)C)NC(=O)[C@H](Cc2c[nH]c3ccccc23)NC(=O)[C@H](CCC(N)=O)NC1=O [Cyclorasin 9A51, (Trp-Tle-val-arg-Arg-Arg-nal-Arg-Phe(3,4-difluoro)-nle-Gln)] (cyclo(W[Tle][dV][dR]RR[d2Nal]R[Phe(3,4-F2)][dNle]Q))
Second: CCCC[C@H]1NC(=O)[C@H](Cc2ccc(F)cc2)NC(=O)[C@H](CCCNC(=N)N)NC(=O)[C@@H](Cc2ccc3ccccc3c2)NC(=O)[C@H](C)NC(=O)[C@H](CCCNC(=N)N)NC(=O)[C@H](CCC(=O)N[C@@H](CCCCN)C(N)=O)NC(=O)[C@@H](C)NC(=O)[C@H]([C@@H](C)O)NC(=O)[C@H](Cc2c[nH]c3ccccc23)NC(=O)[C@@H](CO)NC1=O [Cyclorasin 9A(Arg2A), (Arg-Ala-nal-Arg-Fpa-nle-ser-Trp-Thr-ala-Gln)-Lys] (cyclo(RA[d2Nal]R[Phe(4-F)][dNle][dS]WT[dA]E([Lys-NH2])))
The IC50 of the first is 63-fold lower: 15 nM for the first, 940 ± 290 nM for the second. The first is the more potent here.

Same assay, conditions: relative to parent 9A5/9A6

With `CCCC[C@H]1NC(=O)[C@H](Cc2ccc(F)cc2)NC(=O)[C@H](CCCNC(=N)N)NC(=O)[C@@H](Cc2ccc3ccccc3c2)NC(=O)[C@H](CCCNC(=N)N)NC(=O)[C@H](CCCNC(=N)N)NC(=O)[C@@H](CCCNC(=N)N)NC(=O)[C@@H](C)NC(=O)[C@H](C(C)(C)C)NC(=O)[C@H](Cc2c[nH]c3ccccc23)NC(=O)[C@H](CCC(N)=O)NC1=O` [Cyclorasin 9A16, (Trp-Tle-ala-arg-Arg-Arg-nal-Arg-Fpa-nle-Gln)] (cyclo(W[Tle][dA][dR]RR[d2Nal]R[Phe(4-F)][dNle]Q)) the “increase in Ras binding affinity upon residue substitution” value was roughly 2 fold.

With `CCCC[C@H]1NC(=O)[C@H](Cc2ccc(F)c(F)c2)NC(=O)[C@H](CCCNC(=N)N)NC(=O)[C@@H](Cc2ccc3ccccc3c2)NC(=O)[C@H](CCCNC(=N)N)NC(=O)[C@H](CCCNC(=N)N)NC(=O)[C@H](CCCNC(=N)N)NC(=O)[C@@H](C)NC(=O)[C@H]([C@@H](C)O)NC(=O)[C@H](Cc2c[nH]c3ccccc23)NC(=O)[C@H](CCC(N)=O)NC1=O` [Cyclorasin 9A43, (Trp-Thr-ala-Arg-Arg-Arg-nal-Arg-Phe(3,4-difluoro)-nle-Gln)] (cyclo(WT[dA]RRR[d2Nal]R[Phe(3,4-F2)][dNle]Q)) the “increase in Ras binding affinity upon residue substitution” value was 2 fold.

Source: patent US10736932B2, “Small molecule Ras inhibitors” (Ohio State Innovation Foundation, priority 2014, dated 2020)
